Reference: patent US6875843B2, “Prevention of diabetes and prolongation of the honeymoon phase of diabetes by administration of GnRH antagonists” (Children's Mercy Hospital, priority 2001, dated 2005)

Key:
Type in all cases: in vivo, mouse
NOD mice [1] = assay: Incidence and onset of diabetes in gonadectomized male NOD mice; conditions: for Timing of onset of diabetes: gonadectomized NOD mice; for Timing of onset of diabetes / Incidence of diabetes: 100 μg s.c. six times weekly (FIG. 4)
Description: (§1) Mice. The well-characterized NOD mice were used throughout the study. Male and female mice were purchased from the Jackson Laboratory (Bar Harbor, Me.). These mice are art-recognized animal models used in diabetes research. (Makino et al., (1980) Breeding of a Non-obese Diabetic Strain of Mice. Exp Anim, 29, 1-13; Miyazaki, A. T., et al, (1985) Predominance of T Lymphocytes in Pancreatic Islets and Spleen in Prediabetic Non-Obese Diabetic (Nod) Mice: a Longitudinal Study. Clin Exp immunol, 60, 622-630)
Experimental Design. Both intact and gonadectomized mice (GDX) were used. […] To compare the effects of GnRH agonists and antagonists, gonadectomized animals were randomized at 14 to 18 days of age and begun immediately in one of the following main treatment groups: GnRH agonist; Antide; vehicle. One group of gonadectomized males was treated with Nal-Glu, as an additional control.
(§2) Gonadectomy. Males were gonadectomized via a single scrotal incision under pentobarbital anesthesia.
(§3) Injections. GnRH (native decapeptide) was purchased from Bachem (Bubendorf, Switzerland). GnRH antagonist Antide (Acetyl-β-[2-Naphthyl]-D-Ala-D-p-Chloro-Phe-β-[3-Pyridyl]-D-Ala-Ser-Nε-[Nicotinoyl]-Lys-Nε-[Nicotinoyl]-D-Lys-Leu-Nε-[Isopropyl]-Lys-Pro-D-Ala-NH2) was supplied by Contraceptive Development Branch (NICHHD) of the National Institutes of Health and Ares-Serono (Randolph, Mass.). A second GnRH antagonist, Nal-Glu (acetyl-D2Nal1, D4CIPhe2, D3Pal3, Arg5, Dglu6 (AA), DAla10) was supplied by NICHHD and was used on a subset of mice. All references to GnRH agonist refer to the native decapeptide. Animals were injected subcutaneously in the nape of the neck six times weekly, in the a.m., with 100 μg of GnRH or GnRH antagonist in 100 μl of vehicle consisting of 50% propylene glycol and 50% double distilled water.
Clinical tests. Total immunoglobulin G concentrations were measured by single radial immunodiffusion assay using immunodiffusion plates containing monospecific antiserum for IgG (ICN Biomedicals, Inc., Costa Mesa, Calif. ). Serum glucoses were checked weekly using a One Touch Fast Take meter (Lifescan, Milpitas, Calif.) Urine was tested for glucose by urinalysis reagent strips (Miles, Inc., Elkhart Ind.). Glycosuria was scored by comparison to reference standards on a scale of 0 to 4 as follows: negative=0; 30 mg/dL=1; 100 mg/dL=2; 300 mg/dL=3;>1000 mg/dL=4.
Statistics. Serum immunoglobulin measurements were compared by two-tailed Student's paired t-tests. Percentages of mice remaining diabetes-free was assessed by Mantel-Haenszel methodology. (Mantel, N. (1966) Evaluation of Survival Data and Two New Rank Order Statistics Arising in its Consideration. Cancer Chemother Rep, 50, 163-70)

NOD mice [2] = assay: Lymphocytic infiltration of islet cells, pancreatic histology in gonadectomized NOD mice; conditions: 100 μg s.c. six times weekly, 3, 5, 7, 9 and 11 weeks, vs vehicle (FIG. 5)
Method: In this example, gonadectomized NOD mice were treated with either the GnRH antagonist Antide or the vehicle (50% propylene glycol and 50% double distilled water) to determine differences in the rate of lymphocytic infiltration of islet cells.
Mice. The well-characterized NOD mice were used throughout the study. Male and female mice were purchased from the Jackson Laboratory (Bar Harbor, Me.). Again, these mice are art-recognized animal models used in diabetes research.
as §2
Injections. The mice were injected subcutaneously in the nape of the neck six times weekly, in the a.m., with 100 μg of the GnRH antagonist in 100 μl of vehicle consisting of 50% propylene glycol and 50% double distilled water.
Pancreatic Histology. Three mice per treatment group were euthanized at 3, 5, 7, 9, and 11 weeks. Pancreatic histologic sections were stained by hemotoxillin and eosin. Ten tissue sections per treatment group were examined. All […] in each tissue section were scored with regard to the presence or absence of lymphocytic infiltrates.

NOD mice [3] = assay: Serum prolactin by radioimmunoassay in NOD mice; conditions: 100 μg s.c. six times weekly
Description: as §3
Sera. Sera were collected from blood obtained every six weeks by retroorbital puncture after light isofluorane anesthesia.
Hormone measurements. Serum testosterone concentrations were measured by RIA using a commercial kit (Coat-A-Count, Diagnostic Products Corporation, Los Angeles, Calif.). Serum LH and prolactin were measured by radioimmunoassay (RIA) using previously described methods. […]

NOD mice [4] = assay: Serum total immunoglobulin G in gonadectomized NOD mice (single radial immunodiffusion); conditions: 100 μg s.c. six times weekly, 8 weeks of treatment, vs vehicle (FIG. 3)
Description: as §1
Experimental Design. Both intact and gonadectomized mice (GDX) were used. […] To compare the effects of GnRH agonists and antagonists, gonadectomized animals were randomized at 14 to 18 days of age and begun immediately in one of the following main treatment groups: GnRH agonist; Antide; vehicle. One group of gonadectomized males was treated with Nal-Glu, as an additional control. […]
Clinical tests. Total immunoglobulin G concentrations were measured by single radial immunodiffusion assay using immunodiffusion plates containing monospecific antiserum for IgG (ICN Biomedicals, Inc., Costa Mesa, Calif. ). […] Glycosuria was scored by comparison to reference standards on a scale of 0 to 4 as follows: negative=0; 30 mg/dL=1; 100 mg/dL=2; 300 mg/dL=3;>1000 mg/dL=4.
Statistics. […] Percentages of mice remaining diabetes-free was assessed by Mantel-Haenszel methodology. […]

Acetyl-β-[2-Naphthyl]-D-Ala-D-p-Chloro-Phe-β-[3-Pyridyl]-D-Ala-Ser-Nε-[Nicotinoyl]-Lys-Nε-[Nicotinoyl]-D-Lys-Leu-Nε-[Isopropyl]-Lys-Pro-D-Ala-NH2 [Antide]
Timing of onset of diabetes (NOD mice [1]): delayed onset of diabetes | Incidence of diabetes (NOD mice [1]; gonadectomized male NOD mice): significantly decreased | Percentage of treated mice diabetic (NOD mice [1]; gonadectomized male NOD mice, 100 μg s.c. six times weekly, at 60 weeks of age, compared to vehicle (FIG. 4)): 0% | Lymphocytic infiltration of islets (percentages of islets infiltrated) (NOD mice [2]): statistically significant reduction in lymphocytic infiltration | Serum prolactin levels (NOD mice [3]): neither agonist nor antagonist treatment altered serum prolactin levels | Serum IgG concentrations (NOD mice [4]): reduced serum IgG concentrations to levels seen in sham operated mice

GnRH agonist: GnRH native decapeptide purchased from Bachem; all references to GnRH agonist refer to the native decapeptide (QHWSYGLRPG; Gonadoliberin-1; UniProt P01148 24-33, looked up)
Timing of onset of diabetes (NOD mice [1]): accelerated | Incidence of diabetes (NOD mice [1]; gonadectomized male NOD mice): significantly increased | Serum prolactin levels (NOD mice [3]): neither agonist nor antagonist treatment altered serum prolactin levels | Serum IgG concentrations (NOD mice [4]): further increased IgG levels compared to vehicle
